# Data from paper PMC8673761, “CLN7 is an organellar chloride channel regulating lysosomal function” (Science Advances, 2021).
# Changes are numbered by the printed parent chain.
# Key:
# [1] = target: T1, hCLN7 (EGFP-CLN7, MFSD8) (Homo sapiens, UniProt Q8NHS3); assay: whole-endolysosomal patch clamp, Cl- current; assay type: cell-based
# T1 construct: full length, 518 residues, N-terminal EGFP tag kept (pEGFP-C2); expressed in HEK293T (endolysosomes); PM-targeted mutant in HeLa
# T1 sequence (Q8NHS3 1-518): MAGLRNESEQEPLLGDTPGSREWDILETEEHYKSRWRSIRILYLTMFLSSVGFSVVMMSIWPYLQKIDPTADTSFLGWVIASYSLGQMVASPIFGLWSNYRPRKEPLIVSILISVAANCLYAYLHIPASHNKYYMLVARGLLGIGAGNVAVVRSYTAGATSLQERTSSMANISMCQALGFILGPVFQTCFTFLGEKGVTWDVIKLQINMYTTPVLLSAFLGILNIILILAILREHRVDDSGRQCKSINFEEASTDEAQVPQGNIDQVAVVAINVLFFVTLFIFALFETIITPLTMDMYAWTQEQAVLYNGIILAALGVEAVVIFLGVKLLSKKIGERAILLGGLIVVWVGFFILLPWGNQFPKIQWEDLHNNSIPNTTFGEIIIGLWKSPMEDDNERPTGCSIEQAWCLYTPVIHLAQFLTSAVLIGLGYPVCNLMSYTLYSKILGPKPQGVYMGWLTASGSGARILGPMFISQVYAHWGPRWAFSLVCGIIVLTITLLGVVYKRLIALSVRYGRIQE
# [2] = target: T2, hCLN7 (EGFP-CLN7, MFSD8) (Homo sapiens, UniProt Q8NHS3, L13A/L14A); assay: whole-cell patch clamp in HeLa, Cl- current; assay type: cell-based; details: EGFP-tagged, plasma membrane-targeted; bath 150 mM HCl pH 4.6 (NMDG), pipette pH 7.2
# T2 construct: full length, 518 residues, N-terminal EGFP tag kept (pEGFP-C2); expressed in HEK293T (endolysosomes); PM-targeted mutant in HeLa
# T2 sequence (Q8NHS3 1-518 L13A/L14A): T1 sequence (Q8NHS3 1-518) with L13A, L14A
# [3] = target: T3, YCR023C (yeast CLN7 homolog) (Saccharomyces cerevisiae, UniProt P25351); assay: whole-cell patch clamp in HeLa, Cl- current; assay type: cell-based, Homo sapiens; details: EGFP-tagged; bath 150 mM HCl pH 4.6 (NMDG), pipette pH 7.2
# T3 construct: full length, codon-optimised synthetic gene, N-terminal EGFP tag kept (pEGFP-C1); expressed in HeLa cells
# T3 sequence (P25351 1-611): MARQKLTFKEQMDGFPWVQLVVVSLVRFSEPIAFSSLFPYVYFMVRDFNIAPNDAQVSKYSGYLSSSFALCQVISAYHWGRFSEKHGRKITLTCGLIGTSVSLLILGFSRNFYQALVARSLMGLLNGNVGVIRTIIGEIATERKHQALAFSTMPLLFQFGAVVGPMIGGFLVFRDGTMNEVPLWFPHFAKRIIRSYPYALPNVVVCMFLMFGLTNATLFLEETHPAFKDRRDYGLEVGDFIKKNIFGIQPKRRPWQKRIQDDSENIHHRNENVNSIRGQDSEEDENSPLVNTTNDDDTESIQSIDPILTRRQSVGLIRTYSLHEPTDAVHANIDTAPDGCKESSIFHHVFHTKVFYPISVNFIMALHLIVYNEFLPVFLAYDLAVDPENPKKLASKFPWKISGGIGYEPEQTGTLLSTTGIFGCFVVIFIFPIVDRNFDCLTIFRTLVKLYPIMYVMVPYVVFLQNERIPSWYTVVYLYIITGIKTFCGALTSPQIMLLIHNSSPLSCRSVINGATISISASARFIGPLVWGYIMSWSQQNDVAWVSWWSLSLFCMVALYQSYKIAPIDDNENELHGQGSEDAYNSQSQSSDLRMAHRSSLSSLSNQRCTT
IC50 [1] [µM],Compound,"whole-cell patch clamp in HeLa, Cl- current [2]","whole-cell patch clamp in HeLa, Cl- current [3]"
0.0069 ± 0.00157,"O=C(O)c1cc([N+](=O)[O-])ccc1NCCCc1ccccc1 [NPPB, 5-Nitro-2-(3-phenylpropylamino)benzoic acid]","the whole-cell currents were also outward-rectifying and sensitive to pH, DIDS, NFA, and NPPB","including outward rectification and sensitivities to DIDS, NFA, and NPPB"
42.4 ± 7.13,O=C(O)c1cccnc1Nc1cccc(C(F)(F)F)c1 [NFA],"the whole-cell currents were also outward-rectifying and sensitive to pH, DIDS, NFA, and NPPB","including outward rectification and sensitivities to DIDS, NFA, and NPPB"

Compound,IC50 [1] [µM],"whole-cell patch clamp in HeLa, Cl- current [2]","whole-cell patch clamp in HeLa, Cl- current [3]"
"O=S(=O)(O)c1cc(N=C=S)ccc1/C=C/c1ccc(N=C=S)cc1S(=O)(=O)O [DIDS, 4,4‘-diisothiocyano-2,2‘-stilbenedisulfonate]",32.3 ± 6.08,,"including outward rectification and sensitivities to DIDS, NFA, and NPPB"
